According to patent US11286268B1, “EIF4E-inhibiting compounds and methods” (EFFECTOR THERAPEUTICS, INC., priority 2019, dated 2022):
Like-named read-outs stand apart in the source and are kept apart here.

Molecular target: recombinant eIF4E (Homo sapiens (Human), UniProt P06730)
Test: Fluorescence polarization competition assay for eIF4E binding potency
In short: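 Competition of test compound against 20 nM EDA-m^7GDP-ATTO-550 for 75 nM recombinant eIF4E, pre-incubated 5 min, in 20 mM Tris pH 7.5, 100 mM NaCl, 1 mM DTT, 0.02% Tween-20, 1% DMSO. Equilibrated 30 min at room temperature, dark; fluorescence polarization read. IC50 from 8-point, 3-fold dilution series.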

[1] = inhibition of eIF4E/EDA-m7GDP-ATTO-550 binding, calculated IC50 values, Table 4B, read-out: IC50
[2] = fluorescence polarization competition, 75 nM recombinant eIF4E, 20 nM EDA-m7GDP-ATTO-550, IC50 class, read-out: elF4E FP
[3] = inhibition of eIF4E/EDA-m7GDP-ATTO-550 binding by 50%, Table 4B calculated values, read-out: IC50

recombinant eIF4E, sequence (P06730 whole entry): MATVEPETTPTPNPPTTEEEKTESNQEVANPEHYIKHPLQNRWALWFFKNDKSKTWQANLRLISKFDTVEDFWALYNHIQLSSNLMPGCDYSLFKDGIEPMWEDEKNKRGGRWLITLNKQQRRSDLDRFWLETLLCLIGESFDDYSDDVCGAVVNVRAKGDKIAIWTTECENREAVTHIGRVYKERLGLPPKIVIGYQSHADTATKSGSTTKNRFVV

## Cc1nc2cnc(N(C)C3[C@@H]4CC[C@H]3CN(CC(C)(F)F)C4)c(C#N)c2c(=O)n1CC#Cc1ccc(Cl)cc1-c1ccnc2c(C(=O)O)csc12 (stereo partly drawn) [compound 1575]
[1]
  IC50: 14.7 nM

## Cc1cc(-c2cc(Cl)ccc2OCCn2c(C)nc3cc(C(F)(F)F)c(CC4CCN(C)CC4=O)c(C#N)c3c2=O)c2scc(C(=O)O)c2n1 (stereo not drawn) [compound 1908]
[1]
  IC50: 5.17 nM

## Cc1cc(-c2cc(Cl)ccc2OCCn2c(C)nc3cnc(-c4cc(Cl)ccc4Cl)c(C#N)c3c2=O)c2scc(C(=O)O)c2n1 [compound 954]
[2]
  IC50: < 50 nM
[3]
  IC50: 8.29 nM

## Cc1nc2cnc(N3CCN(C4CC4)C(C(F)(F)F)C3)c(C#N)c2c(=O)n1CCOc1ccc(Cl)cc1-c1ccnc2c(C(=O)O)csc12 (stereo not drawn) [compound 1438]
[1]
  IC50: 40.8 nM

## N#Cc1cc2c(=O)n(CCOc3ccc(Cl)cc3-c3ccnc(C(=O)O)c3)cnc2cn1 [compound 29]
[2]
  IC50: 50 to 1000 nM
[3]
  IC50: 211 nM

## Cc1nc2cnc(-c3cccc(CN(C)CC(F)F)c3)c(C#N)c2c(=O)n1CC#Cc1ccc(Cl)cc1-c1ccnc2c(C(=O)O)csc12 [compound 1559]
[1]
  IC50: 13.4 nM

## COc1cc(S(=O)(=O)NC(=O)c2csc3c(-c4cc(Cl)ccc4C#CCn4c(C)nc5cnc(N(C)C6CCN(CC(C)(F)F)CC6)c(C#N)c5c4=O)ccnc23)ccn1 [compound 1683]
[1]
  IC50: 18.3 nM

## Cc1cc(-c2cc(Cl)ccc2OCCn2c(C)nc3cc(CN(C)C)c(C(F)(F)F)c(C#N)c3c2=O)c2scc(C(=O)O)c2n1 [compound 635]
[2]
  IC50: < 50 nM
[3]
  IC50: 10.6 nM

## Cc1nc2cnc(N(C)C3CCN(C(C)C(F)F)CC3)c(C#N)c2c(=O)n1CC#Cc1ccc(Cl)cc1-c1ccnc2c(C(=O)O)csc12 (stereo not drawn) [compound 1518]
[1]
  IC50: 10.7 nM

## Cc1cc(-c2cc(Cl)ccc2OCCn2c(C)nc3cnc(-c4ccc(C)c(O)c4)c(C#N)c3c2=O)c2scc(C(=O)O)c2n1 [compound 1227]
[2]
  IC50: < 50 nM
[1]
  IC50: 12.8 nM

## N#Cc1cccc2nc(C(F)F)n(CCOc3ccc(Cl)cc3-c3ccc(C(=O)O)c(C(=O)O)c3)c(=O)c12 [compound 148]
[2]
  IC50: < 50 nM
[3]
  IC50: 20.5 nM

## Cc1nc2cc(C(F)(F)F)c(CN3CCN(C)CC3)c(C#N)c2c(=O)n1CCOc1ccc(Cl)cc1-c1cc(CF)nc2c(C(=O)O)csc12 [compound 645]
[2]
  IC50: < 50 nM
[3]
  IC50: 31.3 nM

## N#Cc1ncc(CCOc2ccc(Cl)cc2-c2cccc(C(=O)O)c2)c2c(=O)[nH]c(NCC(F)(F)F)nc12 [compound 177]
[2]
  IC50: < 50 nM
[3]
  IC50: 26.8 nM

## C#Cc1c(C(=O)O)cccc1-c1cc(Cl)ccc1OCCn1c(C)nc2cncc(C#N)c2c1=O [compound 155]
[2]
  IC50: < 50 nM
[3]
  IC50: 45.5 nM

## Cc1cc(-c2cc(Cl)ccc2OCCn2c(C)nc3nc(C(F)(F)F)c(C)nc3c2=O)c2scc(C(=O)O)c2n1 [compound 760]
[2]
  IC50: < 50 nM
[3]
  IC50: 6.44 nM

## CNc1ncc(-c2cc(Cl)ccc2OCCn2cnc3cnc(C#N)cc3c2=O)nc1C(=O)O [compound 88]
[2]
  IC50: > 1000 nM
[3]
  IC50: 1680 nM

## Cc1nc2cnc(C#N)cc2c(=O)n1CC#Cc1ccc(Cl)cc1-c1ccnc2c(C(=O)O)csc12 [compound 625]
[2]
  IC50: 50 to 1000 nM
[3]
  IC50: 78 nM

## Cc1nc2cc(C(F)(F)F)cc(C#N)c2c(=O)n1CCOc1ccc(Cl)cc1-c1ccnc(C(=O)O)c1 [compound 60]
[2]
  IC50: < 50 nM

## Cc1cc(-c2cc(Cl)ccc2OCCn2c(C)nc3cc(CN(C)C(C)(C)C)c(OC(F)F)c(C#N)c3c2=O)c2scc(C(=O)O)c2n1 [compound 618]
[2]
  IC50: < 50 nM
[3]
  IC50: 2.98 nM

## Cc1nc2cc(CN(C)C)cc(C#N)c2c(=O)n1CCOc1ccc(Cl)cc1-c1ccnc2c(C(=O)O)csc12 [compound 512]
[2]
  IC50: 50 to 1000 nM
[3]
  IC50: 71.8 nM

## CCN(c1ncc2nc(C)n(CC#Cc3ccc(Cl)cc3-c3ccnc4c(C(=O)NS(=O)(=O)c5ccccn5)csc34)c(=O)c2c1C#N)C1CCN(C2CC(F)(F)C2)CC1 [compound 1840]
[1]
  IC50: 26.4 nM

## Cc1cc(-c2cc(Cl)ccc2OCCn2c(C)nc3cc(C(F)(F)F)c(-c4ccnc(C)c4C)c(C#N)c3c2=O)c2scc(C(=O)O)c2n1 [compound 686]
[2]
  IC50: < 50 nM
[3]
  IC50: 26.5 nM

## Cc1nc2cc(C(F)(F)F)cc(C#N)c2c(=O)n1CCOc1cnc(Cl)nc1-c1ccnc2c(C(=O)O)csc12 [compound 454]
[2]
  IC50: 50 to 1000 nM
[3]
  IC50: 51.1 nM

## Cc1nc2cnc(N3CCN(CC(F)(F)F)CC3)c(C#N)c2c(=O)n1CC#Cc1ccc(Cl)cc1-c1ccnc2c(C(=O)O)csc12 [compound 860]
[2]
  IC50: < 50 nM
[3]
  IC50: 10.3 nM

## Cc1nc2cc(C#N)c(Cl)c(C#N)c2c(=O)n1CCOc1ccc(Cl)cc1-c1ccnc2c(C(=O)O)csc12 [compound 239]
[2]
  IC50: < 50 nM
[3]
  IC50: 28.6 nM

## Cc1nc2cnc(N(C)C3CCN(CC(F)(F)C(C)(F)F)CC3)c(C#N)c2c(=O)n1CC#Cc1ccc(Cl)cc1-c1ccnc2c(C(=O)O)csc12 [compound 1107]
[2]
  IC50: < 50 nM
[3]
  IC50: 10.5 nM

## Cc1nc2cc(F)c(F)c(C#N)c2c(=O)n1CCOc1ccc(Cl)cc1-c1ccnc2c(C(=O)NS(C)(=O)=O)csc12 [compound 307]
[2]
  IC50: 50 to 1000 nM
[3]
  IC50: 59.4 nM

## Cc1cc(-c2c(C(F)(F)F)cc3nc(C)n(CCOc4ccc(Cl)cc4-c4cc(C)nc5c(C(=O)O)csc45)c(=O)c3c2C#N)cc(C)n1 [compound 465]
[2]
  IC50: < 50 nM
[3]
  IC50: 15.1 nM

## Cc1cc(-c2cc(Cl)ccc2OCCn2c(C)nc3cc(C(F)(F)F)c(N4CCN(C5COC5)CC4)c(C#N)c3c2=O)c2scc(C(=O)O)c2n1 [compound 1242]
[2]
  IC50: < 50 nM
[1]
  IC50: 8.85 nM

## O=C(O)c1cccc(-c2cc(Cl)ccc2OCCn2c(C(F)F)nc3cccc(Br)c3c2=O)c1 [compound 2009]
[1]
  IC50: 2150 nM

## Cc1cc(-c2cc(Cl)ccc2OCCn2c(C)nc3ccc(C(F)(F)CN(C)C)c(C#N)c3c2=O)c2scc(C(=O)O)c2n1 [compound 529]
[2]
  IC50: < 50 nM
[3]
  IC50: 5.78 nM

## N#Cc1cccc2c(=O)n(CCOc3ccc(Cl)cc3-c3cccc(C(=O)O)c3)cnc12 [compound 75]
[2]
  IC50: > 1000 nM
[3]
  IC50: 1400 nM

## Cc1sc2c(-c3cc(Cl)ccc3OCCn3c(C)nc4cc(S(C)(=O)=O)c(N5CCN(C)CC5)c(C#N)c4c3=O)ccnc2c1C(=O)O [compound 1294]
[1]
  IC50: 55.9 nM

## Cc1nc2cnc(N(C)C3CCN(C4COC4)CC3)c(C#N)c2c(=O)n1CC#Cc1ccc(Cl)cc1-c1ccnc2c(C(=O)NS(C)(=O)=O)csc12 [compound 1561]
[1]
  IC50: 13 nM

## Cc1nc2cc(C(F)(F)F)c(N3CC4(C3)CN(C3CC3)C4)c(C#N)c2c(=O)n1CCOc1ccc(Cl)cc1-c1ccnc2c(C(=O)NS(C)(=O)=O)csc12 [compound 1930]
[1]
  IC50: 4.81 nM

## Cc1nc2ccc(Cl)c(C#N)c2c(=O)n1CCOc1ccc(Cl)cc1-c1ccnc2c(C(=O)O)csc12 [compound 244]
[2]
  IC50: < 50 nM
[3]
  IC50: 31.2 nM

## Cc1cc(-c2cc(Cl)ccc2OCCn2c(C)nc3c(C)ncc(C#N)c3c2=O)c2scc(C(=O)O)c2n1 [compound 673]
[2]
  IC50: < 50 nM
[3]
  IC50: 25.3 nM

## Cc1nc2cnc(N3CCN(C)CC3)c(C#N)c2c(=O)n1CCOc1ccc(Cl)cc1-c1ccnc2c(C(=O)O)csc12 [compound 707]
[2]
  IC50: < 50 nM
[3]
  IC50: 17.8 nM

## CCN(c1ncc2nc(C)n(CC#Cc3ccc(Cl)cc3-c3ccnc4c(C(=O)NS(=O)(=O)c5cccnc5)csc34)c(=O)c2c1C#N)C1CCN(C2COC2)CC1 [compound 1741]
[1]
  IC50: 11 nM

## Cc1nc2cnc(N(C)C3CCN([C@H]4C[C@@H](OC(F)(F)F)C4)CC3)c(C#N)c2c(=O)n1CC#Cc1ccc(Cl)cc1-c1ccnc2c(C(=O)O)csc12 [1173a]
[3]
  IC50: 19.2 nM
